Common to all, as to assay type: cell-based
For one experiment, the system named is FRESH HUMAN TUMORS. The experiment can be described thus: Colony forming assay in fresh human tumors, all tumor types. The note with it: Total of all tumor types; .001 ug/mL continuously; tumor cell survival of less than 50% of control. As to the method: (§1) The clonogenic assays were conducted in accordance with the procedure described hereinbelow: 1) Colony Forming Assays in Soft Agar: Fresh human or murine tumors are disaggregated into single cell suspensions using mechanical, hypoosmotic and/or enzymatic (trypsin) methods. The single cells (about 5 X 10^4-10^5) are plated in 35 mm plastic petri dishes onto a 1 ml "feeder layer" of 0.3% agar dissolved in growth medium containing 5-10% vol/vol of heat-inactivated fetal bovine serum, molten 0.3% agar and the antibiotics penicillin (100 u/mL) and streptomycin (100 ug/mL). Drug exposures can be performed for one hour or continuously (drugs added to final plating medium). Tumor cell colonies > 60 uM in size are counted by automated image analysis after 10-20 days of incubation in a humidified, 5-10% CO2-gassed environment maintained at 37°C. Inhibition of colony formation is calculated based on comparisons to control (untreated) plates wherein the growth of hundreds of colonies/plate is typical. […]
(§2) Fresh human tumor specimens disaggregated to single cell suspensions and exposed to .001 ug/mL of drug continuously. Percent survival represents the fraction of tumor colonies (> 60 uM size) obtained after drug treatment compared to untreated cells of the same tumor. […] Each tumor sample is analyzed in three different petri dishes (i.e., n = 3 for each sample).

The next experiment concerns Melanoma. Put plainly: Colony forming assay in fresh human tumors. The following applies: .001 ug/mL continuously, tumor cell survival of less than 50% of control. The method, then: as §1, §2
In another experiment the test system is 205p14. Put plainly: Activity against human colon tumor cells (MTT assay, 3 day drug exposure). The note with it: cells plated 24 hr. prior to drug addition, read-out: Concentration for 50% inhibition of colony formation for human colon tumors. The method, then:
(§3) For example, the compounds of the present invention were evaluated for cytotoxic activities in cloned human colon carcinomas. The clonogenic assays were conducted in accordance with the procedure described hereinbelow: 1) Colony Forming Assays in Soft Agar: Fresh human or murine tumors are disaggregated into single cell suspensions using mechanical, hypoosmotic and/or enzymatic (trypsin) methods. The single cells (about 5 X 10^4-10^5) are plated in 35 mm plastic petri dishes onto a 1 ml "feeder layer" of 0.3% agar dissolved in growth medium containing 5-10% vol/vol of heat-inactivated fetal bovine serum, molten 0.3% agar and the antibiotics penicillin (100 u/mL) and streptomycin (100 ug/mL). Drug exposures can be performed for one hour or continuously (drugs added to final plating medium). Tumor cell colonies > 60 uM in size are counted by automated image analysis after 10-20 days of incubation in a humidified, 5-10% CO2-gassed environment maintained at 37°C. Inhibition of colony formation is calculated based on comparisons to control (untreated) plates wherein the growth of hundreds of colonies/plate is typical. (Salmon SE, et al., N Engl J Med 298(24):1321-1327, 1978).
(§4) Compounds of the present invention were tested for their in vitro activity in tumor cells sensitive and resistant to standard anti-cancer agents. The tumor cell lines used in this protocol are 8226 human Myeloma^1; 8226/Dox-40^2, L-1210/Murine Leukemia, multidrug resistant L-210/^3, 2780 Human Ovarian Cancer and 2780/AD^4. Each of these resistant cell lines is known as a multidrug resistant or "MDR" cell line. These cell lines produce a 170,00 molecular weight membrane protein termed the P-glycoprotein which acts as an active drug efflux pump. Thus, once a cell produces the P-glycoprotein, it has the capability of pumping out of the cell a large variety of unrelated natural products. […] The protocol for measuring the effectiveness of compounds of the present invention is as follows: 2) In Vitro Tumor Cell Viability Assays Using MTT-Dye: Tumors are processed into a single cell suspension as described above. The cells are plated at a concentration of 3-5 X 10^4/1 mL well into plastic 96-well plates. Growth medium containing 5-10% (vol/vol) heat-inactivated fetal bovine serum and penicillin/streptomycin (as above) is added prior to incubation at 37°C for six days. Afterwards the medium containing the drug is removed, the cells are "washed" by centrifugation in fresh medium or phosphate-buffered saline (pH 7.4). A tetrazolium dye is then added (3,4,5-dimethylthiazol-2-yl)-2,5-diphenyl tetrazolium bromide (MTT). This dye forms a colored formazan product upon activation by mitochondrial reductases in viable cells. Typically, the formazan product is solubilized in acid-propanol or DMSO. The intensity of the color is proportional to viable cell numbers and this is quantitated by spectrophotometric absorbance ([…]) on a micro ELISA plate reader. Test results are calibrated in % control absorbance from untreated tumor cells (Mossman T: J Immunol Meth 65:55-63, 1983). Using the above procedure, Compound 1 was tested for its cytotoxic activity with respect to various tumor cell lines.
(In general: Tetrazolium assays rely on reduction of a dye to a coloured formazan, in cell work by metabolically active cells.)

For the next experiment, the system named is LOVOp32. Described as above. The following applies: cells plated 24 hr. prior to drug addition, read-out: Concentration for 50% inhibition of colony formation for human colon tumors. The method, then:
as §3, §4

For `CN(C)CCN1C(=O)c2cccc3cc4ccccc4c(c23)C1=O` [Compound 1, 2-[2'-(dimethylamino)ethyl]-1,2-dihydro-3H-dibenz(deh)isoquinoline-1,3-dione], the “Overall Response” value with FRESH HUMAN TUMORS is 51%; in the experiment with Melanoma it was 64%. Moreover, the results for the IC50 in the experiment with 205p14 and in the experiment on LOVOp32 were 400 nM and 300 nM, respectively.

These data come from patent EP0536208B1, “1,2-DIHYDRO-3H-DIBENZISOQUINOLINE-1,3-DIONE ANTICANCER AGENTS” (RESEARCH CORPORATION TECHNOLOGIES, INC., priority 1990, dated 1992).
